The source of these data is the NIST ThermoML archive (doi:10.1021/je800505y).

For this series the following is noted: Liquid, Ebulliometric method (Recirculating still).

For orientation: vapor or sublimation pressure means the equilibrium pressure above the liquid or solid.

Numbers after ± are expanded uncertainties.

Take `FCC(F)(F)F` [1,1,1,2-tetrafluoroethane]: the “vapor or sublimation pressure” value worked out at 131 ± 10 kPa (253.15 K), 203 ± 10 kPa (263.15 K), 353 ± 10 kPa (278.15 K) and 571 ± 10 kPa (292.92 K).

Regarding `CCF` [fluoroethane], the “vapor or sublimation pressure” value by setting is: (253.15 K) 214 ± 10 kPa; (263.15 K) 311 ± 10 kPa; (278.15 K) 517 ± 10 kPa; (292.92 K) 802 ± 10 kPa.
